Measurements from ChEMBL document CHEMBL1143830, “Compartmental pharmacokinetic analysis of oral amprenavir with secondary peaks” (Antimicrob Agents Chemother, 2007).

Experiments:
Assay type in all cases: ADME, organism-based
[1] = Central volume of distribution in HIV-seronegative human at 600 mg, po by two compartment model; details: in vivo, read-out: Vc/F
[2] = Total clearance in HIV-seronegative human at 600 mg, po by two compartment model; details: in vivo
[3] = Elimination half life at beta phase in HIV-seronegative human at 600 mg, po by two compartment model; details: in vivo
[4] = Distribution half life at alpha phase in HIV-seronegative human at 600 mg, po by two compartment model; details: in vivo

CC(C)CN(C[C@@H](O)[C@H](Cc1ccccc1)NC(=O)O[C@H]1CCOC1)S(=O)(=O)c1ccc(N)cc1 [AMPRENAVIR]
Vd/F [1]: 1.21 L/kg
CL/F [2]: 19.4 mL/min/kg
half-life [3]: 15.8 h
half-life [4]: 0.547 h
